Experimental data: USRE49687E1, “Thienopyrimidine and thienopyridine compounds and methods of use thereof” (The Regents of The University of Michigan, priority 2014, dated 2023)
Several values for one entry are separate records, joined by “and”; a condition that tells them apart may be missing. Equal entries are not always repeated.

target: T1, menin-MLL interaction (Homo sapiens, UniProt O00255); experiment: Fluorescence polarization (FP) competition assay of the menin-MLL interaction; type: binding; details: inhibition of the menin-MLL interaction; read-out: IC50 values for Table 1 inhibitors of menin
T1 sequence (O00255 1-610): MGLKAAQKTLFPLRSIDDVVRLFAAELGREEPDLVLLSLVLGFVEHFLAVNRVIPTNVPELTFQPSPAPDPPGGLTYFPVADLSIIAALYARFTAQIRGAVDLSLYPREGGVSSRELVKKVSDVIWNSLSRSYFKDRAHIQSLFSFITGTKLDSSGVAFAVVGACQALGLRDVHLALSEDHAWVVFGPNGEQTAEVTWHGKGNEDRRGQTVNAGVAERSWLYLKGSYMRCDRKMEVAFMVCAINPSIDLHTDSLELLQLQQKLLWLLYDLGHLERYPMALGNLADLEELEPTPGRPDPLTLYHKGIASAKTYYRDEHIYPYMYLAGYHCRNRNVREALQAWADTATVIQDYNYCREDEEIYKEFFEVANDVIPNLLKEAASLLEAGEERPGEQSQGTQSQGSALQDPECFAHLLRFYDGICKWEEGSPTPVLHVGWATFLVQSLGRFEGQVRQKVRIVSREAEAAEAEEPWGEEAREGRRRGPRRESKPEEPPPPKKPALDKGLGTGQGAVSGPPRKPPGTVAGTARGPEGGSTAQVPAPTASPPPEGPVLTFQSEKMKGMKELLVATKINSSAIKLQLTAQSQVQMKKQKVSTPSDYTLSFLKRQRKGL

Structure (SMILES)	IC50
C=CC(=O)N1CCN(CCn2c(C#N)cc3cc(CN4CCC(Nc5ccnc6sc(CC(F)(F)F)cc56)CC4)ccc32)CC1 [Compound 1]	30 to 100 nM
C=CC(=O)N1CCN(CCCn2c(C#N)cc3cc(CN4CCC(Nc5ncnc6sc(CC(F)(F)F)cc56)CC4)ccc32)CC1 [Compound 2]	30 to 100 nM
C/C=C/C(=O)N1CCN(CCn2c(C#N)cc3c(C)c(CN4CCC(Nc5ncnc6sc(CC(F)(F)F)cc56)CC4)ccc32)CC1 [Compound 4]	< 30 nM
C#CC(=O)N1CCN(CCn2c(C#N)cc3c(C)c(CN4CCC(Nc5ncnc6sc(CC(F)(F)F)cc56)CC4)ccc32)CC1 [Compound 5]	30 to 100 nM
Cc1c(CN2CCC(Nc3ncnc4sc(CC(F)(F)F)cc34)CC2)ccc2c1cc(C#N)n2CCN1CCN(C(=O)/C=C/CN(C)C)CC1 [Compound 6]	< 30 nM
C/C=C/S(=O)(=O)N1CCN(CCn2c(C#N)cc3c(C)c(CN4CCC(Nc5ncnc6sc(CC(F)(F)F)cc56)CC4)ccc32)CC1 [Compound 7]	< 30 nM
C=CS(=O)(=O)N1CCC(CCn2c(C#N)cc3c(C)c(CN4CCC(Nc5ncnc6sc(CC(F)(F)F)cc56)CC4)ccc32)CC1 [Compound 8]	< 30 nM
C=CC(=O)NCc1cc(Cn2c(C#N)cc3c(C)c(CN4CCC(Nc5ncnc6sc(CC(F)(F)F)cc56)CC4)ccc32)n[nH]1 [Compound 10]	30 to 100 nM
C=CC(=O)NCCC(O)(CO)Cn1c(C#N)cc2c(C)c(CN3CCC(Nc4ncnc5sc(CC(F)(F)F)cc45)CC3)ccc21 (stereo not shown) [Compound 11]	< 30 nM
C=CS(=O)(=O)N1CC2CC1CN2CCn1c(C#N)cc2c(C)c(CN3CCC(Nc4ncnc5sc(CC(F)(F)F)cc45)CC3)ccc21 (stereo not shown) [Compound 17, 4-methyl-5-((4-((6-(2,2,2-trifluoroethyl)thieno[2,3-d]pyrimidin-4-yl)amino)piperidin-1-yl)methyl)-1-(2-(5-(vinylsulfonyl)-2,5-diazabicyclo[2.2.1]heptan-2-yl)ethyl)-1H-indole-2-carbonitrile]	100 to 1000 nM
C=CS(=O)(=O)N1CC2CCC(C1)N2CCn1c(C#N)cc2c(C)c(CN3CCC(Nc4ncnc5sc(CC(F)(F)F)cc45)CC3)ccc21 [Compound 18]	< 30 nM and 30 to 100 nM
C=CS(=O)(=O)N1C2CCC1CN(CCn1c(C#N)cc3c(C)c(CN4CCC(Nc5ncnc6sc(CC(F)(F)F)cc56)CC4)ccc31)C2 [Compound 23]	< 30 nM
C=CC(=O)N1C2CCC1CN(CCn1c(C#N)cc3c(C)c(CN4CCC(Nc5ncnc6sc(CC(F)(F)F)cc56)CC4)ccc31)C2 [Compound 24]	30 to 100 nM
C=CC(=O)NC1CCN(CCn2c(C#N)cc3c(C)c(CN4CCC(Nc5ncnc6sc(CC(F)(F)F)cc56)CC4)ccc32)CC1 [Compound 25]	30 to 100 nM
Cc1c(CN2CCC(Nc3ncnc4sc(CC(F)(F)F)cc34)CC2)ccc2c1cc(C#N)n2CCN1CCC(NC(=O)/C=C/CN(C)C)CC1 [Compound 27]	< 30 nM
C=CC(=O)NC1CN(CCn2c(C#N)cc3c(C)c(CN4CCC(Nc5ncnc6sc(CC(F)(F)F)cc56)CC4)ccc32)C1 [Compound 28]	30 to 100 nM
C=CC(=O)NC1CCN(CCn2c(C#N)cc3c(C)c(CN4CCC(Nc5ncnc6sc(CC(F)(F)F)cc56)CC4)ccc32)C1 (stereo not shown) [Compound 29]	< 30 nM
C=CC(=O)N[C@H]1CCN(CCn2c(C#N)cc3c(C)c(CN4CCC(Nc5ncnc6sc(CC(F)(F)F)cc56)CC4)ccc32)C1 [Compound 31]	< 30 nM
C=CC(=O)N[C@@H]1CCN(CCn2c(C#N)cc3c(C)c(CN4CCC(Nc5ncnc6sc(CC(F)(F)F)cc56)CC4)ccc32)C1 [Compound 32]	< 30 nM
C=CC(=O)Nc1nc(CCn2c(C#N)cc3c(C)c(CN4CCC(Nc5ncnc6sc(CC(F)(F)F)cc56)CC4)ccc32)cs1 [Compound 34, N-(4-(2-(2-cyano-4-methyl-5-((4-((6-(2,2,2-trifluoroethyl)thieno[2,3-d]pyrimidin-4-yl)amino)piperidin-1-yl)methyl)-1H-indol-1-yl)ethyl)thiazol-2-yl)acrylamide]	30 to 100 nM
C=CC(=O)N1CCCN(CCn2c(C#N)cc3c(C)c(CN4CCC(Nc5ncnc6sc(CC(F)(F)F)cc56)CC4)ccc32)CC1 [Compound 66]	< 30 nM
C=CC(=O)Nc1ccc(CCn2c(C#N)cc3c(C)c(CN4CCC(Nc5ncnc6sc(CC(F)(F)F)cc56)CC4)ccc32)cc1 [Compound 81, N-(4-(2-(2-cyano-4-methyl-5-((4-(6-(2,2,2-trifluoroethyl)thieno[2,3-d]pyrimidin-4-ylamino)piperidin-1-yl)methyl)-1H-indol-1-yl)ethyl)phenyl)acrylamide]	< 30 nM
C=CC(=O)NC1CCN(CCn2c(C#N)cc3cc(CN4CCC(Nc5ncnc6sc(CC(F)(F)F)cc56)CC4)c(O)cc32)CC1 [Compound 93]	< 30 nM
C=CC(=O)NN1CCN(CCn2c(C#N)cc3c(C)c(CN4CCC(Nc5ncnc6sc(CC(F)(F)F)cc56)CC4)ccc32)CC1 [Compound 94]	30 to 100 nM
C=CC(=O)Nc1ccc(CCn2c(C#N)cc3c(C)c(CN4CCC(Nc5ncnc6sc(CC(F)(F)F)cc56)CC4)ccc32)cn1 [Compound 100, N-(5-(2-(2-cyano-4-methyl-5-((4-(6-(2,2,2-trifluoroethyl)thieno[2,3-d]pyrimidin-4-ylamino)piperidin-1-yl)methyl)-1H-indol-1-yl)ethyl)pyridin-2-yl)acrylamide]	< 30 nM

Structure (SMILES)	IC50
C=CC(=O)Nc1ccc(C(O)Cn2c(C#N)cc3c(C)c(CN4CCC(Nc5ncnc6sc(CC(F)(F)F)cc56)CC4)ccc32)cc1 (stereo not shown) [Compound 101]	< 30 nM
CCC(=O)Nc1ccc(CCn2c(C#N)cc3c(C)c(CN4CCC(Nc5ncnc6sc(CC(F)(F)F)cc56)CC4)ccc32)cc1 [Compound 102]	< 30 nM
CCC(=O)N1CCCN(CCn2c(C#N)cc3c(C)c(CN4CCC(Nc5ncnc6sc(CC(F)(F)F)cc56)CC4)ccc32)CC1 [Compound 103]	30 to 100 nM
Cc1c(CN2CCC(Nc3ncnc4sc(CC(F)(F)F)cc34)CC2)ccc2c1cc(C#N)n2CCc1ccc(N)c(S(C)(=O)=O)c1 [Compound 104]	30 to 100 nM
C=CC(=O)Nc1ccc(CCn2c(C#N)cc3c(C)c(CN4CCC(Nc5ncnc6sc(CC(F)(F)F)cc56)CC4)ccc32)cc1S(C)(=O)=O [Compound 105]	< 30 nM
C/C=C/C(=O)Nc1ccc(CCn2c(C#N)cc3c(C)c(CN4CCC(Nc5ncnc6sc(CC(F)(F)F)cc56)CC4)ccc32)cn1 [Compound 106]	30 to 100 nM
C=CC(=O)Nc1ccc(C(O)Cn2c(C#N)cc3c(C)c(CN4CCC(Nc5ncnc6sc(CC(F)(F)F)cc56)CC4)ccc32)cn1 (stereo not shown) [Compound 112]	< 30 nM
C=CC(=O)Nc1ccc(C(C)(O)Cn2c(C#N)cc3c(C)c(CN4CCC(Nc5ncnc6sc(CC(F)(F)F)cc56)CC4)ccc32)cc1 (stereo not shown) [Compound 115]	30 to 100 nM
Cc1c(CN2CCC(Nc3ncnc4sc(CC(F)(F)F)cc34)CC2)ccc2c1cc(C#N)n2CCN1CC2CNCC2C1 (stereo not shown) [Compound 167]	< 30 nM
C=CC(=O)N1CC2CN(CCn3c(C#N)cc4c(C)c(CN5CCC(Nc6ncnc7sc(CC(F)(F)F)cc67)CC5)ccc43)CC2C1 (stereo not shown) [Compound 168]	30 to 100 nM
Cc1c(CN2CCC(Nc3ncnc4sc(CC(F)(F)F)cc34)CC2)ccc2c1cc(C#N)n2CCN1CCC2(CCNC2)CC1 [Compound 169]	30 to 100 nM
C=CC(=O)N1CCC2(CCN(CCn3c(C#N)cc4c(C)c(CN5CCC(Nc6ncnc7sc(CC(F)(F)F)cc67)CC5)ccc43)CC2)C1 [Compound 170]	30 to 100 nM
Cc1c(CN2CCC(Nc3ncnc4sc(CC(F)(F)F)cc34)CC2)ccc2c1cc(C#N)n2CCN1CCC2(CCNC2)C1 (stereo not shown) [Compound 171]	30 to 100 nM
C=CC(=O)N1CCC2(CCN(CCn3c(C#N)cc4c(C)c(CN5CCC(Nc6ncnc7sc(CC(F)(F)F)cc67)CC5)ccc43)C2)C1 (stereo not shown) [Compound 172]	30 to 100 nM
C=CC(=O)N1CC2(CN(CCn3c(C#N)cc4c(C)c(CN5CCC(Nc6ncnc7sc(CC(F)(F)F)cc67)CC5)ccc43)C2)C1 [Compound 174]	30 to 100 nM
C=CC(=O)N1CCC2(CN(CCn3c(C#N)cc4c(C)c(CN5CCC(Nc6ncnc7sc(CC(F)(F)F)cc67)CC5)ccc43)C2)C1 [Compound 176]	30 to 100 nM
C=CC(=O)N1CCC2(CC1)CN(CCn1c(C#N)cc3c(C)c(CN4CCC(Nc5ncnc6sc(CC(F)(F)F)cc56)CC4)ccc31)C2 [Compound 178]	30 to 100 nM
C=CC(=O)N1CC2(CCN(CCn3c(C#N)cc4c(C)c(CN5CCC(Nc6ncnc7sc(CC(F)(F)F)cc67)CC5)ccc43)C2)C1 [Compound 182]	30 to 100 nM
C=CC(=O)N1CC2(CCN(CCn3c(C#N)cc4c(C)c(CN5CCC(Nc6ncnc7sc(CC(F)(F)F)cc67)CC5)ccc43)CC2)C1 [Compound 184]	< 30 nM
Cc1c(CN2CCC(Nc3ncnc4sc(CC(F)(F)F)cc34)CC2)ccc2c1cc(C#N)n2CCc1cccc(N)c1 [Compound 189]	30 to 100 nM
C=CC(=O)Nc1cccc(CCn2c(C#N)cc3c(C)c(CN4CCC(Nc5ncnc6sc(CC(F)(F)F)cc56)CC4)ccc32)c1 [Compound 190]	100 to 1000 nM
C=CC(=O)Nc1cn(CCn2c(C#N)cc3c(C)c(CN4CCC(Nc5ncnc6sc(CC(F)(F)F)cc56)CC4)ccc32)cn1 [Compound 192]	100 to 1000 nM
Cc1c(CN2CCC(Nc3ncnc4sc(CC(F)(F)F)cc34)CC2)ccc2c1cc(C#N)n2CCc1ccc(N)c(C#N)c1 [Compound 193]	100 to 1000 nM
C=CC(=O)Nc1ccc(CCn2c(C#N)cc3c(C)c(CN4CCC(Nc5ncnc6sc(CC(F)(F)F)cc56)CC4)ccc32)cc1C#N [Compound 194]	30 to 100 nM
